The text below walks through data of US20220241378A1, “COMPOSITIONS AND METHODS FOR TREATMENT OF CHRONIC GRANULOMATOUS DISEASE” (priority 2019, published 2022).

The subject of the assay is C57BL/6 and p47phox-/- mice infected intranasally with A. fumigatus conidia. Put plainly: Lung inflammation model: C57BL/6 and p47phox-/- mice infected intranasally with A. fumigatus. It is filed as in vivo. The procedure:
In vivo models mimicking human pathology such as lung and gut inflammation were prepared. A model of lung inflammation was tested using C57BL/6 and p47phox-/- mice. The mice were infected with A. fumigatus intranasally and treated them with Tβ4 for 7 consecutive days starting a week after the infection. LC3-II (FIG. 1F) and DAPK1 (FIG. 1G) expression were both defective in p47phox-/- mice, but restored by Tβ4 and ablated (LC3-II) upon siTβ4 (FIGS. 10A and 10B). In addition, gut inflammation was tested using the same mouse model. Acute colitis in p47phox-/- mice was initiated by administering […] in drinking water for 7 days followed by 7 days of DSS-free autoclaved water. Subsequently, Tβ4 was therapeutically administered daily for 7 days, after DSS treatment, at the time at which mice started to lose weight. Consistent with previous findings (de Luca et al., 2014), LC3-II (FIG. 1H) and DAPK1 (FIG. 1I) expression were both defective in the colon ofp47phox-/- mice with colitis as opposed to WT mice but restored upon treatment with T134 (FIGS. 1H and 1I). DAPK1 expression in colon lysates of C57BL/6 and p47^phox-/- mice subjected to DSS-induced colitis for a week and treated intraperitoneally with 5 mg/kg Tβ4 for 7 consecutive days after DSS treatment, n=6-10 mice per group. Data are presented as mean ±SD and are representative of two experiments. Mice were categorized as Naive (uninfected or untreated mice) or None (infected mice). For immunoblotting, normalization was performed on mouse β-actin or Gapdh and corresponding pixel density or ratio is depicted. For immunofluorescence, nuclei were counterstained with DAPI. Photographs were taken with a high-resolution microscope (Olympus BX51), 40× and 100× magnification. LC3 mean fluorescence intensity (MFI) was measured with the ImageJ software. In FIGS. 1F-1H, n=6-10 mice per group. Data are presented as mean ±SD and are representative of two experiments. Naïve, uninfected or untreated mice. None, infected mice.
Viable conidia from the A. fumigatus Af293 strain were obtained as described (De Luca et al., 2012). Mice were anesthetized in a plastic cage by inhalation of 3% isoflurane (Forane Abbot) in oxygen before intranasal instillation of 2×10^7 resting conidia/20 μl saline. For survival curves, p47^phox-/- mice were challenged with […] conidia/20 μl saline. Tβ4 was administered intraperitoneally (i.p.) at the dose of 5 mg/kg at an effective dose as described (Badamchian et al., Thymosin beta(4) reduces lethality and down-regulates inflammatory mediators in endotoxin-induced septic shock. Int Immunopharmacol, 2003 3(8): p. 1225-33), every day in concomitance with (days 0→7) or after (days 7→14) infection. DMOG (Merck Millipore) was administered i.p. at the dose of 8 mg/mouse concomitantly to the infection. For Hif1a silencing, each mouse received intranasal administration of 10 mg/kg unmodified siRNA [Duplex name mm.Ri.Hif1a.13.1 (IDT); 5′-[…]-3′; 3′-[…] -5′] and Tmsb4x silencing [Duplex name mm.Ri.Tmsb4x.13.1; 5′-[…]-3′; 3′-[…] -5′], or equivalent dose of nonspecific control siRNA duplex in a volume of 20 μl of duplex buffer (IDT). Intranasal siRNA was given once the day before infection and 1, 3 and 5 days after infection (Iannitti et al., 2013 Hypoxia promotes danger-mediated inflammation via receptor for advanced glycation end products in cystic fibrosis. Am J Respir Crit Care Med 188:1338-1350). It is known that lung-specific siRNA delivery can be achieved by intranasal administration without the use of viral vectors or transfection agents in vivo (Iannitti et al., 2013 Th17/Treg imbalance in murine cystic fibrosis is linked to indoleamine 2,3-dioxygenase deficiency but corrected by kynurenines. Am J Respir Crit Care Med 187:609-620). Mice were sacrificed 7 or 14 days post infection. Fungal burden was determined by qPCR and expressed as conidial equivalents (CE). Lung tissue was aseptically removed and homogenized in 3 ml of sterile saline. […]

The mark [1] stands for this setting: following Tβ4 treatment, thoracic lymph nodes, lung homogenates.
The mark [2] stands for this setting: lung homogenates, ELISA (FIG. 4E).

As to Thymosin β4 [Tβ4], the “HIF-1α protein in lung” value (CGD (p47phox-/-) mice, Tβ4 7 days concomitantly to infection (FIG. 2E, 2F)) is on record as “restored”. Also, under “both types of mice (C57BL/6 and p47phox-/-), 5 mg/kg i.p. (FIG. 4A)”, the “fungal growth in the lung” value is “reduced”. Under setting [1], the “pathogenic Th2/Th17/Th9 cell responses” value is given as “down-regulated” and the “protective Th1/Treg cell responses” value is “promoted”. Further, the “NLRP3 expression in lung” value (infected mice (FIG. 4D)) is “down-regulated”. Under setting [2], the IFNy production result is recorded as “reduced”, the IL-1β production entry was “reduced”, the IL-17A production entry was “reduced” and the TNF-α production result is listed as “reduced”. For the same substance, for the setting “lungs of Aspergillus-infected mice (FIG. 3C)”, the “expression of genes of angiogenic signaling (Angpt2, Tie2, Vegfa), remodeling (Fgf2), hormonal regulation (Epo), cell migration (Cxcr4)” value was “upregulated”. Moreover, the “gross lung pathology and histological examination” value (p47phox-/- mice after Tβ4 administration (FIG. 4C)) was “No signs of inflammatory lung injury and granuloma formation”. For the same substance, the HIF-1α-dependent glycolytic genes result (p47phox-/- mice, 5 mg/kg Tβ4 (FIG. 8A)) was “not increased”. The Irg1 expression result (p47phox-/- mice, 5 mg/kg Tβ4 (FIG. 8B)) is listed as “increased”. Also, the “LC3-II expression in lung” value (p47phox-/- mice, 5 mg/kg i.p. 7 consecutive days starting a week after infection (FIG. 1F)) is listed as “restored”. The “DAPK1 expression in lung” value (p47phox-/- mice, 5 mg/kg i.p. 7 consecutive days starting a week after infection (FIG. 1G)) is listed as “restored”.
